From patent US20220331341A1, “TREATMENT COMPRISING THE USE OF FXR AGONISTS” (Novartis AG, priority 2019, published 2022)

Legend:
[1] = tested on: HF/NASH mice (hepatic oxidative stress and mitochondrial function); test: Dietary HF/NASH mouse model, tropifexor treatment for the last 12 of 20 weeks; assay type: in vivo, C57BL/6J mice
Source text: Molecular, structural and functional analysis was applied to assess oxidative stress and mitochondria function in NASH model.
Similar to human disease, transition from steatosis to NASH with fibrosis in NASH mice is associated with mitochondrial dysfunction characterized by structural and functional alterations. Decline in hepatic mitochondrial function is manifested in HF/NASH mice by decreased activities of tricarboxylic acid (TCA) cycle and electron transport chain (ETC) as well as diminished ATP production. This is accompanied by oxidative damage and depletion of antioxidant enzymes. […] This was manifested by a marked increase in mitochondrial function with concomitant restoration of oxidative balance associated with increased antioxidant defenses and decreased oxidative stress.

[2] = tested on: patients with biopsy-proven NASH and fibrosis stages 2-3; test: FLIGHT-FXR (NCT02855164) Part C interim analysis at week 12; assay type: in vivo, human; conditions: for ALT, LS mean absolute change from baseline to Week 12 (SE) / Body weight, LS mean absolute change from baseline to Week 12 (SE) / GGT, LS mean absolute change from baseline to Week 12 (SE): full analysis set
Source text: Prespecified endpoints assessed at week 12 included overall safety and changes in alanine aminotransferase (ALT), hepatic fat fraction (HFF), gamma glutamyl transferase (GGT), and body weight.

NASH patients = test: Study CLJN452A2202 Parts A and B, 12 weeks; assay type: in vivo, human

O=C(O)c1cc(F)c2nc(N3C4CC[C@H]3CC(OCc3c(-c5ccccc5OC(F)(F)F)noc3C3CC3)C4)sc2c1 (stereo partly drawn) [Tropifexor, 2-[(1R,3r,5S)-3-({5-cyclopropyl-3-[2-(trifluoromethoxy)phenyl]-1,2-oxazol-4-yl}methoxy)-8-azabicyclo[3.2.1]octan-8-yl]-4-fluoro-1,3-benzothiazole-6-carboxylic acid]
Liver SOD activity ([1]; 0.3 mg/kg): fully restored
GPx activity in serum and liver ([1]; 0.9 mg/kg): restored
Liver SOD activity ([1]; 0.9 mg/kg): increased above the levels observed in ND mice
Cell death (apoptosis) in liver: cleaved-caspase 3 staining and phospho-p38 protein levels ([1]; 20 weeks HF/NASH diet): attenuated cell death in a dose dependent manner
ATP synthesis ([1]; HF/NASH livers): improving
Citrate synthase (CS) activity ([1]; HF/NASH livers): dose-dependently restored
Complex I and Complex II activities ([1]; HF/NASH livers): restoring
Content of all five respiratory chain (OXPHOS) proteins ([1]; HF/NASH livers, 0.1 mg/kg): full restoration
Expression of mitochondrial biogenesis genes (PGC-1a, Nrf1, Tfam) ([1]; HF/NASH mice): did not lead to changes
Levels of oxidative stress in HF/NASH livers (MDA, 4-HNE, mtDNA) ([1]; liver): markedly decreased
Antioxidant gene expression (GPx and GST superfamilies) ([1]; liver transcriptome): induced
Expression of Gpx2, Gst family ([1]; liver transcriptome): markedly increased their expression beyond the ND levels
Expression of Gpx3, Gpx8 ([1]; liver transcriptome): restored expression of investigated genes to ND levels
Serum levels of γ-glutamyltranspeptidase (GGT) ([1]; serum): decreased
Frequency of serious adverse events ([2]; 140 μg and 200 μg vs placebo): low and comparable across groups
Low density lipoprotein-cholesterol (LDL-C) ([2]; 140 μg and 200 μg, 12 weeks): dose-related increase
Share of patients with pruritus whose events were of mild (Grade 1) severity ([2]; both Tropifexor groups (140 μg and 200 μg)): > 60%
Treatment discontinuation rate due to pruritus ([2]; tropifexor 140 μg): 2%
ALT, LS mean absolute change from baseline to Week 12 (SE) ([2]; tropifexor 140 μg once daily): −20.1 (4.57) U/L
Body weight, LS mean absolute change from baseline to Week 12 (SE) ([2]; tropifexor 140 μg once daily): −2.46 (0.38) kg
GGT, LS mean absolute change from baseline to Week 12 (SE) ([2]; tropifexor 140 μg once daily): −39.2 (3.70) U/L
Prespecified endpoints at week 12 ([2]; tropifexor 200 μg): met
Treatment discontinuation rate due to pruritus ([2]; tropifexor 200 μg): 6%
ALT, LS mean absolute change from baseline to Week 12 (SE) ([2]; tropifexor 200 μg once daily): −23.6 (4.48) U/L
Body weight, LS mean absolute change from baseline to Week 12 (SE) ([2]; tropifexor 200 μg once daily): −3.20 (0.37) kg
GGT, LS mean absolute change from baseline to Week 12 (SE) ([2]; tropifexor 200 μg once daily): −40.9 (3.62) U/L
Biologic activity (GGT) (NASH patients; 10 to 90 μg daily for 12 weeks): clear dose response
Target engagement (FGF19) (NASH patients; 10 to 90 μg daily for 12 weeks): clear dose response
ALT and hepatic fat fraction compared to placebo (NASH patients; all doses (10, 30, 60 and 90 μg), 12 weeks): reduced
Tolerability (NASH patients; up to 90 μg daily): generally well tolerated
